Activity calls are given as the source filed them. How the calls were made is not given here.
System: CCRIS mutagenicity, Ames/micronucleus/aberration tests
Assay: CCRIS mutagenicity studies
[1] = Test System: AMES SALMONELLA TYPHIMURIUM, Strain/Indicator: TA98, Metabolic Activation: HAMSTER, LIVER, S-9, AROCLOR 1254 (10%), Method: PREINCUBATION
[2] = Test System: AMES SALMONELLA TYPHIMURIUM, Strain/Indicator: TA98, Metabolic Activation: NONE, Method: PREINCUBATION
[3] = Test System: AMES SALMONELLA TYPHIMURIUM, Strain/Indicator: TA98, Metabolic Activation: RAT, LIVER, S-9, AROCLOR 1254 (10%), Method: PREINCUBATION
[4] = Test System: AMES SALMONELLA TYPHIMURIUM, Strain/Indicator: TA100, Metabolic Activation: HAMSTER, LIVER, S-9, AROCLOR 1254 (10%), Method: PREINCUBATION
[5] = Test System: AMES SALMONELLA TYPHIMURIUM, Strain/Indicator: TA100, Metabolic Activation: NONE, Method: PREINCUBATION
[6] = Test System: AMES SALMONELLA TYPHIMURIUM, Strain/Indicator: TA100, Metabolic Activation: RAT, LIVER, S-9, AROCLOR 1254 (10%), Method: PREINCUBATION
[7] = Test System: AMES SALMONELLA TYPHIMURIUM, Strain/Indicator: TA1535, Metabolic Activation: HAMSTER, LIVER, S-9, AROCLOR 1254 (10%), Method: PREINCUBATION
[8] = Test System: AMES SALMONELLA TYPHIMURIUM, Strain/Indicator: TA1535, Metabolic Activation: NONE, Method: PREINCUBATION
[9] = Test System: AMES SALMONELLA TYPHIMURIUM, Strain/Indicator: TA1535, Metabolic Activation: RAT, LIVER, S-9, AROCLOR 1254 (10%), Method: PREINCUBATION
[10] = Test System: AMES SALMONELLA TYPHIMURIUM, Strain/Indicator: TA1537, Metabolic Activation: HAMSTER, LIVER, S-9, AROCLOR 1254 (10%), Method: PREINCUBATION
[11] = Test System: AMES SALMONELLA TYPHIMURIUM, Strain/Indicator: TA1537, Metabolic Activation: NONE, Method: PREINCUBATION
[12] = Test System: AMES SALMONELLA TYPHIMURIUM, Strain/Indicator: TA1537, Metabolic Activation: RAT, LIVER, S-9, AROCLOR 1254 (10%), Method: PREINCUBATION
[13] = Test System: AMES SALMONELLA TYPHIMURIUM, Strain/Indicator: TA98, Metabolic Activation: NONE, Method: STANDARD PLATE
[14] = Test System: AMES SALMONELLA TYPHIMURIUM, Strain/Indicator: TA100, Metabolic Activation: NONE, Method: STANDARD PLATE
[15] = Test System: AMES SALMONELLA TYPHIMURIUM, Strain/Indicator: TA100, Metabolic Activation: RAT, LIVER, S-9, AROCLOR 1254, Method: STANDARD PLATE
[16] = Test System: AMES SALMONELLA TYPHIMURIUM, Strain/Indicator: TA1535, Metabolic Activation: NONE, Method: STANDARD PLATE
[17] = Test System: AMES SALMONELLA TYPHIMURIUM, Strain/Indicator: TA1535, Metabolic Activation: RAT, LIVER, S-9, AROCLOR 1254, Method: STANDARD PLATE
[18] = Test System: AMES SALMONELLA TYPHIMURIUM, Strain/Indicator: TA1537, Metabolic Activation: NONE, Method: STANDARD PLATE

Measured: mutagenic call

CCCCCC
inactive: Test System: AMES SALMONELLA TYPHIMURIUM, Strain/Indicator: TA97, Metabolic Activation: NONE, Method: PREINCUBATION inactive; negative | Test System: AMES SALMONELLA TYPHIMURIUM, Strain/Indicator: TA97, Metabolic Activation: RAT, LIVER, S-9, AROCLOR 1254, Method: PREINCUBATION inactive; negative | [1] inactive; negative | [2] inactive; negative | [3] inactive; negative | [4] inactive; negative | [5] inactive; negative | [6] inactive; negative | Test System: AMES SALMONELLA TYPHIMURIUM, Strain/Indicator: TA102, Metabolic Activation: NONE, Method: PREINCUBATION inactive; negative | Test System: AMES SALMONELLA TYPHIMURIUM, Strain/Indicator: TA102, Metabolic Activation: RAT, LIVER, S-9, AROCLOR 1254, Method: PREINCUBATION inactive; negative | [7] inactive; negative | [8] inactive; negative | [9] inactive; negative | [10] inactive; negative | [11] inactive; negative | [12] inactive; negative

CN1CCN(C2=Nc3ccccc3Oc3ccc(Cl)cc32)CC1
inactive: [13] inactive; negative | Test System: AMES SALMONELLA TYPHIMURIUM, Strain/Indicator: TA98, Metabolic Activation: RAT, LIVER, S-9, AROCLOR 1254, Method: STANDARD PLATE inactive; negative | [14] inactive; negative | [15] inactive; negative | [16] inactive; negative | [17] inactive; negative | [18] inactive; negative | Test System: AMES SALMONELLA TYPHIMURIUM, Strain/Indicator: TA1537, Metabolic Activation: RAT, LIVER, S-9, AROCLOR 1254, Method: STANDARD PLATE inactive; negative

Cc1cccc2c1ccc1cc(C(C)C)ccc12
inactive: [14] inactive; negative | [15] inactive; negative

NC1CCCCC1
inactive: Test System: CHINESE HAMSTER OVARY, Strain/Indicator: CHO-K1-BH4 (HGPRT), Metabolic Activation: NONE, Method: STANDARD PLATE inactive; negative | Test System: CHINESE HAMSTER OVARY, Strain/Indicator: CHO-K1-BH4 (HGPRT), Metabolic Activation: RAT, LIVER, S-9, Method: STANDARD PLATE inactive; negative | Test System: UDS RODENT HEPATOCYTES, Strain/Indicator: THY INCORP (NON-S-PHASE), Metabolic Activation: NONE, Method: AUTORADIOGRAPHY inactive; negative

CNC(=O)N(O)C(C)=O
active: [13] active; positive | Test System: AMES SALMONELLA TYPHIMURIUM, Strain/Indicator: TA98, Metabolic Activation: RAT, LIVER, S-9, Method: STANDARD PLATE active; positive | [14] active; positive

N[C@@H](Cc1ccc(N(CCCl)CCCl)cc1)C(=O)O
active: End Point: In vivo chromosomal aberrations, Test System: Bone marrow cells, Species: Mouse, Strain/Sex: C57B1/6 / Female (base p53+/-), Route: Oral (gavage) active; positive | End Point: In vivo chromosomal aberrations, Test System: Splenocytes, Species: Mouse, Strain/Sex: C57B1/6 / Female (base p 53+/-), Route: Oral (gavage) active; positive | Test System: AMES SALMONELLA TYPHIMURIUM, Strain/Indicator: TA100, Metabolic Activation: HAMSTER, LIVER, S-9, AROCLOR 1254 (30%), Method: PREINCUBATION active; positive | [5] active; positive | [14] active; positive | Test System: AMES SALMONELLA TYPHIMURIUM, Strain/Indicator: TA100, Metabolic Activation: RAT, LIVER, S-9, AROCLOR 1254 (30%), Method: PREINCUBATION active; positive | [15] active; positive | [16] active; positive | [17] active; positive
inactive: [13] inactive; negative | Test System: AMES SALMONELLA TYPHIMURIUM, Strain/Indicator: TA98, Metabolic Activation: RAT, LIVER, S-9, AROCLOR 1254 (30%), Method: PREINCUBATION inactive; negative | [18] inactive; negative | Test System: E. COLI, Strain/Indicator: WP2 (HCR), Metabolic Activation: S-9, Method: STANDARD PLATE inactive; negative

Cn1c2ccccc2c2ccccc21
inactive: [13] inactive; negative | Test System: AMES SALMONELLA TYPHIMURIUM, Strain/Indicator: TA98, Metabolic Activation: RAT LIVER S-9, AROCLOR 1254, Method: STANDARD PLATE inactive; negative | [14] inactive; negative | Test System: UDS PRIMARY RAT HEPATOCYTES, Strain/Indicator: THY-INCORP, Metabolic Activation: NONE, Method: AUTORADIOGRAPHY inactive; negative
active: Test System: AMES SALMONELLA TYPHIMURIUM, Strain/Indicator: TA100, Metabolic Activation: RAT LIVER S-9, AROCLOR 1254, Method: STANDARD PLATE active; positive

CCCNCCC
inactive: [1] inactive; negative | [2] inactive; negative | [3] inactive; negative | [4] inactive; negative | [5] inactive; negative | [6] inactive; negative | [7] inactive; negative | [8] inactive; negative | [9] inactive; negative | [10] inactive; negative | [11] inactive; negative | [12] inactive; negative

CCCCOCC1CO1 (centres undefined)
active: [4] active; positive | [5] active; positive | Test System: AMES SALMONELLA TYPHIMURIUM, Strain/Indicator: TA100, Metabolic Activation: NONE, Method: SPOT active; positive | [6] active; positive | [7] active; positive | [8] active; positive | [9] active; positive
